Reference: patent publication US8796268B2, “Heteroaryls and uses thereof” (Millennium Pharmaceuticals, Inc., priority 2010, dated 2014)

What was measured:
Assay type in all cases: biochemical
Human PI3K delta = target: T1, Human PI3K delta (Homo sapiens, UniProt O00329); assay: Human PI3K delta enzyme assay (HTRF); conditions: concentration not given, b1389 states 1.0 μM for PI3K δ and γ; for inhibition at 1 µM: read-out: p110 delta Percent Inhibition
T1 construct: His (N); host or cells: SF9 insect cells (baculovirus)
T1 sequence (O00329 whole entry): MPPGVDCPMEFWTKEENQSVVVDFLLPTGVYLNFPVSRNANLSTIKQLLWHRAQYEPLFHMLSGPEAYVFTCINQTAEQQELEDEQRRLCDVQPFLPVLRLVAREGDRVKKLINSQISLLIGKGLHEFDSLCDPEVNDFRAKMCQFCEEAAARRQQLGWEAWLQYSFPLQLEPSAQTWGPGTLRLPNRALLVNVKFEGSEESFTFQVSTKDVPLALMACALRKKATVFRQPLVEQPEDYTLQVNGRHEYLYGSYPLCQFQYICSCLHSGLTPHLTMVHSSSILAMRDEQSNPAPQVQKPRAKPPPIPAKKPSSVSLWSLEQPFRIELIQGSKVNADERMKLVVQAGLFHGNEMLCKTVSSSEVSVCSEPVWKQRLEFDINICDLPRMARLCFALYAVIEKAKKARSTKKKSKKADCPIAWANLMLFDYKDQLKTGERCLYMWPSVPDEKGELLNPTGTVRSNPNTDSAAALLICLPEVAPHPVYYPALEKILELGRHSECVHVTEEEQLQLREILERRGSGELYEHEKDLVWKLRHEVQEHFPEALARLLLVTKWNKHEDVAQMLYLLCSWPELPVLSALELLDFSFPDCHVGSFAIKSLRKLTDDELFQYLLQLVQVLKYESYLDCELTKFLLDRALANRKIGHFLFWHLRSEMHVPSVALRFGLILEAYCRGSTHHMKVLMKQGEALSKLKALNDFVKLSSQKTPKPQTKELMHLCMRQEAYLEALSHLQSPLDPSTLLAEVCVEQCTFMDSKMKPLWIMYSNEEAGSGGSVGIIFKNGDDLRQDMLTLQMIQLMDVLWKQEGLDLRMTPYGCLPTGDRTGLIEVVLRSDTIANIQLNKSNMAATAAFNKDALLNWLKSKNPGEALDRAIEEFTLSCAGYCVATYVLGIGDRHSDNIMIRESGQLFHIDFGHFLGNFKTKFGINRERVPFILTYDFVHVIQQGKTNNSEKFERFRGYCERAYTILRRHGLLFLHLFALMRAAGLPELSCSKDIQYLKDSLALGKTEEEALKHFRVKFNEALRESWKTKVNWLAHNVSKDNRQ
T1 sequence (P27986 whole entry partner): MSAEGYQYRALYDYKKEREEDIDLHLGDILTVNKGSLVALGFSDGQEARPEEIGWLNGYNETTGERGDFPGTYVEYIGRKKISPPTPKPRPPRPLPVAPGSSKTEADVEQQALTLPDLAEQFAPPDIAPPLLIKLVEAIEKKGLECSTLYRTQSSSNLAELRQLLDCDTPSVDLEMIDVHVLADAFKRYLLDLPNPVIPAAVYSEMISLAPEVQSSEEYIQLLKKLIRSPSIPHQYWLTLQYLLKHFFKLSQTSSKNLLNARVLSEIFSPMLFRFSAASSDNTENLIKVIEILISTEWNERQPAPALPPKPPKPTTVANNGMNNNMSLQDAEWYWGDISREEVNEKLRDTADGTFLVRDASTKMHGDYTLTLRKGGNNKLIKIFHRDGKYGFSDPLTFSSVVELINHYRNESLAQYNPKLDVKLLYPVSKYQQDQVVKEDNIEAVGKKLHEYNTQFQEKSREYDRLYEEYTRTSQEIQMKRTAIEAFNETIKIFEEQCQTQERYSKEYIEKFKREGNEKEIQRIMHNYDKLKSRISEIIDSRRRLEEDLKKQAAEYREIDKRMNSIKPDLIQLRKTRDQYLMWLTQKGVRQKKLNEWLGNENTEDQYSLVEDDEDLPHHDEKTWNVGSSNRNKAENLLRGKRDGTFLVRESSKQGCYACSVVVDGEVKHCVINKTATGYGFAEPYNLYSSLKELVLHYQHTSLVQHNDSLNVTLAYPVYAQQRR
Summary of the method: (§1)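 Compounds were mixed with 25 uM ATP, then with 3.5 uM di-C8 PI(4,5)P2 and His-tagged PI3K isoform (β 5.25 nM, δ 0.75 nM, γ 5 nM) at pH 7.00. After 30 min at room temperature, EDTA stopped the reaction and PIP3 was measured by HTRF over 1 h.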

Human PI3K alpha = target: T2, Human PI3K alpha (Homo sapiens, UniProt P42336); assay: Human PI3K alpha enzyme assay (HTRF); conditions: concentration not given, b1387 states 1.1 μM for PI3K α and β; for inhibition at 1.1 µM: read-out: p110 alpha Percent Inhibition
T2 construct: His (N); host or cells: SF9 insect cells (baculovirus)
T2 sequence (P42336 whole entry): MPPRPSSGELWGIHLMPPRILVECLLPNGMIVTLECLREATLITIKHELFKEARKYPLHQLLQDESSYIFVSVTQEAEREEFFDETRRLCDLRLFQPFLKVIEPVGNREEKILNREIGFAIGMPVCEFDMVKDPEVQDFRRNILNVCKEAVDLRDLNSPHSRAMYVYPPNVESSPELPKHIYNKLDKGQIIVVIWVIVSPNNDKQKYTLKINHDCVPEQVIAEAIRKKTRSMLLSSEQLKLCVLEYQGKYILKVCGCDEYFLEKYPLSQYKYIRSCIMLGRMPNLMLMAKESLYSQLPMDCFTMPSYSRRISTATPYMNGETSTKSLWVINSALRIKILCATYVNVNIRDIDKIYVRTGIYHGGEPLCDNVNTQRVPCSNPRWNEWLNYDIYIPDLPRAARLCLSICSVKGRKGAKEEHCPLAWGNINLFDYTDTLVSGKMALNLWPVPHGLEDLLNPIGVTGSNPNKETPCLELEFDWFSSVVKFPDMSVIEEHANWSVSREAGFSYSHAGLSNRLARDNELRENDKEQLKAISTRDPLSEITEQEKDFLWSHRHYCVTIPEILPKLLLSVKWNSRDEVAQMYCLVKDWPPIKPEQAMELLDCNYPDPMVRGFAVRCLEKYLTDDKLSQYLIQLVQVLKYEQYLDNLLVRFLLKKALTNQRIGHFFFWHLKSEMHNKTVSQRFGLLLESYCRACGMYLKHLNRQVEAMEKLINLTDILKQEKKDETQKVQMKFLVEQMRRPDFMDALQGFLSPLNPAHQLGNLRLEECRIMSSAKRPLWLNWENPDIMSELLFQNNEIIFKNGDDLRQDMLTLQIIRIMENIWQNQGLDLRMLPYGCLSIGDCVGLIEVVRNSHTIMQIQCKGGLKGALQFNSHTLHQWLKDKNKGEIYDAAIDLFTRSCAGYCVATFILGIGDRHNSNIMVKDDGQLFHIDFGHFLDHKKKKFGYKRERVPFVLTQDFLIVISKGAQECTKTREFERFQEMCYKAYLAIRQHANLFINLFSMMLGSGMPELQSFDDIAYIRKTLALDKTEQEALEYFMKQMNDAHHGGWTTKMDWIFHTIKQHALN
T2 sequence (P27986 whole entry partner): as the sequence (P27986 whole entry partner) above

Human PI3K gamma = target: T3, Human PI3K gamma (Homo sapiens, UniProt P48736); assay: Human PI3K gamma enzyme assay (HTRF); conditions: concentration not given, b1389 states 1.0 μM for PI3K δ and γ; for inhibition at 1 µM: read-out: p110 gamma Percent Inhibition
T3 construct: His (N); host or cells: SF9 insect cells (baculovirus)
T3 sequence (P48736 whole entry): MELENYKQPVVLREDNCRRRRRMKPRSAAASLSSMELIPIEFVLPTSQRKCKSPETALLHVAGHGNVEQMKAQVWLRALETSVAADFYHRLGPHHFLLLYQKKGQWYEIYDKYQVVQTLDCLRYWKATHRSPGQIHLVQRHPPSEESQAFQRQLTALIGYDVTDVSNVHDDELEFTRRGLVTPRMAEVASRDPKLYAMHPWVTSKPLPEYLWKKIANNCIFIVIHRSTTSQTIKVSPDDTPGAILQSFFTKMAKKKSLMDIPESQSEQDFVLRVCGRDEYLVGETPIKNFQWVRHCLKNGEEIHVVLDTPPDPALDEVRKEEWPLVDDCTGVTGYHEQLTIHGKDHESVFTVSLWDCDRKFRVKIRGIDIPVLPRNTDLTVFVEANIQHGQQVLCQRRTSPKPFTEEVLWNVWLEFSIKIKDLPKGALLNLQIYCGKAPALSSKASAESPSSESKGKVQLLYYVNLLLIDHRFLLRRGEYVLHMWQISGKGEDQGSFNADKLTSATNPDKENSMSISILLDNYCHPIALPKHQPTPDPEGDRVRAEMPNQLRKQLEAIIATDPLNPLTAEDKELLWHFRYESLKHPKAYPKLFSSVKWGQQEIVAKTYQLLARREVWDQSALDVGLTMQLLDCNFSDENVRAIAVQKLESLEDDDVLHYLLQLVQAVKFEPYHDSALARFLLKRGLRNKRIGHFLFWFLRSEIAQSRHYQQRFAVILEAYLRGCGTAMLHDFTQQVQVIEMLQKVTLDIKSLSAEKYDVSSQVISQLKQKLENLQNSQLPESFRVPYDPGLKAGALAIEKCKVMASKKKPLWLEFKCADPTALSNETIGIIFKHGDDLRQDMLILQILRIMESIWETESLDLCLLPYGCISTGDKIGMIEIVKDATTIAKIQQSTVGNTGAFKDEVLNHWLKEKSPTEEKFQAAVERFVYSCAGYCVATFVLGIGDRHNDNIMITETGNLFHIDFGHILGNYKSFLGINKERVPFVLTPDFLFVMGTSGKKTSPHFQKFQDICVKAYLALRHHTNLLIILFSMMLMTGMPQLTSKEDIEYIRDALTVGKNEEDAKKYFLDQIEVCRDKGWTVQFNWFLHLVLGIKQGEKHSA
Summary of the method: as §1

Human PI3K beta = target: T4, Human PI3K beta (Homo sapiens, UniProt P42338); assay: Human PI3K beta enzyme assay (HTRF); conditions: concentration not given, b1387 states 1.1 μM for PI3K α and β; for inhibition at 1.1 µM: read-out: p110 beta Percent Inhibition
T4 construct: His (N); host or cells: SF9 insect cells (baculovirus)
T4 sequence (P42338 whole entry): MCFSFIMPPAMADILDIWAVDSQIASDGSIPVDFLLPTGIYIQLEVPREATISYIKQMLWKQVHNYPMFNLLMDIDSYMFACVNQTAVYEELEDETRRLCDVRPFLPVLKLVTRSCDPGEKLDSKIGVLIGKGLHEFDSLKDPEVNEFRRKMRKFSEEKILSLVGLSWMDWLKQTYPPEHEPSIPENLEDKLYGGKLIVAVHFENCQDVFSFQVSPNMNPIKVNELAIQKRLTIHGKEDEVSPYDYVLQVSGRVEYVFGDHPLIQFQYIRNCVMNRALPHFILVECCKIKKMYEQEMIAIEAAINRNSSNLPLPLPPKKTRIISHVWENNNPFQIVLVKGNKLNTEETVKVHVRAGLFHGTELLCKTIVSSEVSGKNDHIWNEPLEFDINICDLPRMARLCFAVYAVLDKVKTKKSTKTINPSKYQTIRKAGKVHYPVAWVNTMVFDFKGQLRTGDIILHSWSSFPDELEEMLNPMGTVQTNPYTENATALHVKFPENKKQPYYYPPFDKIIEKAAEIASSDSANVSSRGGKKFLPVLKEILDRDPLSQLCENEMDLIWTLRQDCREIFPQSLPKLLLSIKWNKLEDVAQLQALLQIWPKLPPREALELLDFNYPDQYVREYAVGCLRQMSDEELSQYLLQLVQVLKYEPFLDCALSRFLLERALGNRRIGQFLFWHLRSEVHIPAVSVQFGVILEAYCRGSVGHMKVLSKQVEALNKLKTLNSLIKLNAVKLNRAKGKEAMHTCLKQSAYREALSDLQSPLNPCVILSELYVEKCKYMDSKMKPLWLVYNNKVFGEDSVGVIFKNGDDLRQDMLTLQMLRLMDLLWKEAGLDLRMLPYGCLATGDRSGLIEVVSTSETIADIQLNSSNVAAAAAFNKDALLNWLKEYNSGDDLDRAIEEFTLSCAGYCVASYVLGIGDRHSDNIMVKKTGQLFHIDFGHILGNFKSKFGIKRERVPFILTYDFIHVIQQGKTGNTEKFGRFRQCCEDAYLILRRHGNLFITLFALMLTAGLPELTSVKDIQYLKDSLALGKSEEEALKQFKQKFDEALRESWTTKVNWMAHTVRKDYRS
T4 sequence (P27986 whole entry partner): as the sequence (P27986 whole entry partner) above
Summary of the method: as §1

Row | SMILES | inhibition at 1 µM (Human PI3K delta) | inhibition at 1.1 µM (Human PI3K alpha) | inhibition at 1 µM (Human PI3K gamma) | inhibition at 1.1 µM (Human PI3K beta) | p110 delta Percent Inhibition (Human PI3K delta) | p110 alpha Percent Inhibition (Human PI3K alpha) | p110 gamma Percent Inhibition (Human PI3K gamma) | p110 beta Percent Inhibition (Human PI3K beta)
1 | O=C(O)c1cc(-c2sc(-c3ccncc3)nc2Cc2ccc(Cl)cc2)[nH]n1 [Compound 262, 5-(4-(4-chlorobenzyl)-2-(pyridin-4-yl)thiazol-5-yl)-1H-pyrazole-3-carboxylic acid] | 12% | 0% | 4% | 69% | – | – | – | –
2 | OC(c1cnc2ccccc2n1)c1cc(-c2ccncc2)sc1-c1nnc[nH]1 (stereo not shown) [Compound 263] | 84% | 48% | 43% | 105% | – | – | – | –
3 | CC(=O)Nc1cc(-c2cc(C(c3ccc(Cl)cc3)N3CCN(C)CC3)c(-c3nnc[nH]3)s2)ccn1 (stereo not shown) [Compound 267] | 111% | 100% | 43% | 113% | – | – | – | –
4 | CC(=O)Nc1cc(-c2cc(C(c3ccc(Cl)cc3)N3CCC[C@@H]3CO)c(-c3nnc[nH]3)s2)ccn1 (stereo partly shown) [Compound 268] | 102% | 82% | 16% | 95% | – | – | – | –
5 | CC(=O)Nc1cc(-c2cc(C(c3ccc(Cl)cc3)N3CC[C@H](CO)C3)c(-c3nnc[nH]3)s2)ccn1 (stereo partly shown) [Compound 269] | 101% | 72% | 15% | 100% | – | – | – | –
6 | CC(=O)Nc1cc(-c2cc(C(c3ccc(Cl)cc3)N3CC(CCN)C3)c(-c3nnc[nH]3)s2)ccn1 (stereo not shown) [Compound 270] | 111% | 81% | 24% | 114% | – | – | – | –
7 | CC(=O)Nc1cc(-c2cc(C(O)(C3=CCOCC3)c3ccc(Cl)cc3)c(-c3nnc[nH]3)s2)ccn1 (stereo not shown) [Compound 273] | 98% | 88% | 7% | 73% | – | – | – | –
8 | CC(=O)Nc1cc(-c2cc(C(c3ccc(Cl)cc3)N(C)C3CNC3)c(-c3nnc[nH]3)s2)ccn1 (stereo not shown) [Compound 274] | 107% | 98% | 38% | 109% | – | – | – | –
9 | OC(c1ccccc1-c1cccnc1)c1cc(-c2ccncc2)sc1-c1nnc[nH]1 (stereo not shown) [Compound 276] | 12% | 4% | 6% | 15% | – | – | – | –
10 | CC(=O)Nc1cc(-c2cc(C(c3ccc(Cl)cc3)N(C)C3CNC3)c(-c3nnc[nH]3)s2)ccn1 (stereo not shown) [Compound 277] | – | – | – | – | 116% | 95% | 55% | 97%
11 | OC(c1ccc2ccccc2c1)c1cc(-c2ccncc2)sc1-c1nnc[nH]1 (stereo not shown) [Compound 280] | 92% | 35% | 34% | 106% | – | – | – | –
12 | OC(c1cc(-c2ccncc2)sc1-c1nnc[nH]1)c1c(F)ccc2ccccc12 (stereo not shown) [Compound 281] | – | – | – | 96% | 97% | 52% | 56% | –
13 | O=C(O)c1sc(N2CCOCC2)nc1Cc1cc2ccccc2s1 [Compound 286] | 104% | 36% | 50% | 92% | – | – | – | –
14 | COc1ccc2cc(Cc3nc(N4CCOCC4)sc3C(=O)O)ccc2c1 [Compound 288] | 76% | 14% | 19% | 85% | – | – | – | –
15 | Cc1nc2cc(Cc3nc(N4CCOCC4)sc3C(=O)O)ccc2s1 [Compound 289] | 32% | 11% | 10% | 32% | – | – | – | –
16 | O=C(O)c1sc(N2CCOCC2)nc1Cc1cc(Cl)c(Cl)cc1F [Compound 290] | 104% | 23% | 49% | 104% | – | – | – | –
17 | N#Cc1c(N2CCOCC2)sc(C(=O)O)c1C(N)c1ccc(Cl)c(Cl)c1 (stereo not shown) [Compound 291] | 105% | 36% | 57% | 107% | – | – | – | –
18 | O=C(O)c1sc(N2CCOCC2)nc1Cc1ccc2cnccc2c1 [Compound 292] | 56% | 4% | 6% | 82% | – | – | – | –
19 | N#Cc1c(N2CCOCC2)sc(C(=O)O)c1Cn1cnc2ccccc2c1=O [Compound 294, 4-cyano-5-(morpholin-4-yl)-3-[(4-oxoquinazolin-3(4H)-yl)methyl]thiophene-2-carboxylic acid] | 101% | 47% | 35% | 94% | – | – | – | –

Second part, the compound after the results:

Row | inhibition at 1 µM (Human PI3K delta) | inhibition at 1.1 µM (Human PI3K alpha) | inhibition at 1 µM (Human PI3K gamma) | inhibition at 1.1 µM (Human PI3K beta) | p110 delta Percent Inhibition (Human PI3K delta) | p110 alpha Percent Inhibition (Human PI3K alpha) | p110 gamma Percent Inhibition (Human PI3K gamma) | p110 beta Percent Inhibition (Human PI3K beta) | SMILES
20 | 37% | 37% | 6% | 74% | – | – | – | – | OC(c1ccc(Br)o1)c1cc(-c2ccncc2)sc1-c1nnc[nH]1 (stereo not shown) [Compound 260]
21 | 100% | 32% | 28% | 99% | – | – | – | – | COc1ccc(C(O)c2cc(-c3ccncc3)sc2-c2nnc[nH]2)c(F)c1 (stereo not shown) [Compound 264]
22 | – | – | – | – | 111% | 64% | 64% | 109% | COc1cc(C(O)c2cc(-c3ccnc(C)c3)sc2-c2nnc[nH]2)c(F)cc1Cl (stereo not shown) [Compound 265]
23 | 52% | 36% | 8% | 90% | – | – | – | – | OC(c1cc(F)ccc1F)c1cc(-c2ccncc2)sc1-c1nnc[nH]1 (stereo not shown) [Compound 266]
24 | 63% | 35% | 8% | 82% | – | – | – | – | Cc1ccc(C(O)c2cc(-c3ccncc3)sc2-c2nnc[nH]2)s1 (stereo not shown) [Compound 271]
25 | 70% | 70% | 10% | 96% | – | – | – | – | COc1ccc(C(O)c2cc(-c3ccncc3)sc2-c2nnc[nH]2)cn1 (stereo not shown) [Compound 272]
26 | 44% | 17% | 14% | 47% | – | – | – | – | OC(c1cc(-c2ccncc2)sc1-c1nnc[nH]1)c1c(F)cccc1Cl (stereo not shown) [Compound 275]
27 | – | – | – | 98% | 83% | 23% | 35% | – | COc1cc(C(O)c2cc(-c3ccnc(Cl)c3)sc2-c2nnc[nH]2)c(F)cc1Cl (stereo not shown) [Compound 278]
28 | 78% | 19% | 42% | 106% | – | – | – | – | COc1cc(C(O)c2cc(-c3ccncc3)sc2-c2nnc[nH]2)c(F)cc1Cl (stereo not shown) [Compound 279]
29 | – | 14% | – | 99% | 64% | – | 21% | – | COc1cc(C(O)c2cc(-c3ccnnc3)sc2-c2nnc[nH]2)c(F)cc1Cl (stereo not shown) [Compound 282]
30 | – | – | – | – | 110% | 39% | 66% | 114% | OC(c1cc2ccccc2cc1F)c1cc(-c2ccncc2)sc1-c1nnc[nH]1 (stereo not shown) [Compound 284]
31 | – | – | – | – | 77% | 16% | 18% | 83% | COc1cc(C(O)c2cc(-c3ccnc(C)c3)sc2-c2nnc[nH]2)c(F)cc1Cl (stereo not shown) [Compound 285]
